Structures are written as SMILES.

In assay [1] the target is mouse TAAR1 (Mus musculus (Mouse), UniProt Q923Y8). As to the kind of experiment: Radioligand binding assay on mouse TAAR1.
Protocol: Radioligand Binding Assay on Mouse TAAR1
(§1) Membrane Preparation and Radioligand Binding.
HEK-293 cells stably expressing mouse TAAR1 were maintained at 37° C. and 5% CO2 in DMEM high glucose medium, containing fetal calf serum (10%, heat inactivated for 30 min at 56° C.), penicillin/streptomycin (1%), and 375 μg/ml geneticin (Gibco). Cells were released from culture flasks using trypsin/EDTA, harvested, washed twice with ice-cold PBS (without Ca^2+ and Mg^2+), pelleted at 1'000 rpm for 5 min at 4° C., frozen and stored at −80° C. Frozen pellets were suspended in 20 ml HEPES-NaOH (20 mM, pH 7.4) containing 10 mM EDTA and homogenized with a Polytron (PT 6000, Kinematica) at 14'000 rpm for 20 s. The homogenate was centrifuged at 48'000×g for 30 min at 4° C. Subsequently, the supernatant was removed and discarded, and the pellet resuspended in 20 ml HEPES-NaOH (20 mM, pH 7.4) containing 0.1 mM EDTA using the Polytron (20 s at 14'000 rpm). This procedure was repeated and the final pellet resuspended in HEPES-NaOH containing 0.1 mM EDTA and homogenized using the Polytron. Typically, aliquots of 2 ml membrane portions were stored at −80° C. With each new membrane batch the dissociation constant (Kd) was determined via a saturation curve. The TAAR1 radioligand ^3[H]—(S)-4-[(ethyl-phenyl-amino)-methyl]-4,5-dihydro-oxazol-2-ylamine (described in WO 2008/098857) was used at a concentration equal to the calculated Kd value, that was usually around 0.7 nM, resulting in the binding of approximately 0.5% of the radioligand and a specific binding representing approximately 70% of the total binding. Nonspecific binding was defined as the amount of ^3[H]—(S)-4-[(ethyl-phenyl-amino)-methyl]-4,5-dihydro-oxazol-2-ylamine bound in the presence of 10 M unlabeled ligand. All compounds were tested at a broad range of concentrations (10 pM to 10 μM) in duplicates. […] The 96 deep well plates were incubated for 1 hr at 4° C. Incubations were terminated by rapid filtration through Unifilter-96 plates (Packard Instrument Company) and glass filters GF/C (Perkin Elmer) presoaked for 1 hr in polyethylenimine (0.3%) and washed 3 times with 1 ml of cold binding buffer. After addition of 45 μl of Microscint 40 (PerkinElmer) the Unifilter-96 plate was sealed and after 1 hr the radioactivity counted using a TopCount Microplate Scintillation Counter (Packard Instrument Company).
Assay [2] concerns the target rat TAAR1 (Rattus norvegicus (Rat), UniProt Q923Y9). The assay is described as follows: Radioligand binding assay on rat TAAR1.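 Note: membranes from HEK293 cells stably transfected with rat TAAR1, tritiated TAAR1 radioligand, 1 h incubation at 4 °C, nonspecific binding determined with excess unlabeled ligand.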
Protocol: as §1
HEK-293 cells stably expressing rat TAAR1 were maintained at 37° C. and 5% CO2 in DMEM high glucose medium, containing fetal calf serum (10%, heat inactivated for 30 min at 56° C.), penicillin/streptomycin (1%), and 375 μg/ml geneticin (Gibco). Cells were released from culture flasks using trypsin/EDTA, harvested, washed twice with ice-cold PBS (without Ca^2+ and Mg^2+), pelleted at 1'000 rpm for 5 min at 4° C., frozen and stored at −80° C. Frozen pellets were suspended in 20 ml HEPES-NaOH (20 mM, pH 7.4) containing 10 mM EDTA and homogenized with a Polytron (PT 6000, Kinematica) at 14′000 rpm for 20 s. The homogenate was centrifuged at 48'000×g for 30 min at 4° C. Subsequently, the supernatant was removed and discarded, and the pellet resuspended in 20 ml HEPES-NaOH (20 mM, pH 7.4) containing 0.1 mM EDTA using the Polytron (20 s at 14'000 rpm). This procedure was repeated and the final pellet resuspended in HEPES-NaOH containing 0.1 mM EDTA and homogenized using the Polytron. Typically, aliquots of 2 ml membrane portions were stored at −80° C. With each new membrane batch the dissociation constant (Kd) was determined via a saturation curve. […] Nonspecific binding was defined as the amount of 3 [H]—(S)-4-[(ethyl-phenyl-amino)-methyl]-4,5-dihydro-oxazol-2-ylamine bound in the presence of 10 M unlabeled ligand. All compounds were tested at a broad range of concentrations (10 pM to 10 μM) in duplicates. […] The 96 deep well plates were incubated for 1 hr at 4° C. Incubations were terminated by rapid filtration through Unifilter-96 plates (Packard Instrument Company) and glass filters GF/C (Perkin Elmer) presoaked for 1 hr in polyethylenimine (0.3%) and washed 3 times with 1 ml of cold binding buffer. After addition of 45 μl of Microscint 40 (PerkinElmer) the Unifilter-96 plate was sealed and after 1 hr the radioactivity counted using a TopCount Microplate Scintillation Counter (Packard Instrument Company).

Chain of mouse TAAR1 (Q923Y8 whole entry): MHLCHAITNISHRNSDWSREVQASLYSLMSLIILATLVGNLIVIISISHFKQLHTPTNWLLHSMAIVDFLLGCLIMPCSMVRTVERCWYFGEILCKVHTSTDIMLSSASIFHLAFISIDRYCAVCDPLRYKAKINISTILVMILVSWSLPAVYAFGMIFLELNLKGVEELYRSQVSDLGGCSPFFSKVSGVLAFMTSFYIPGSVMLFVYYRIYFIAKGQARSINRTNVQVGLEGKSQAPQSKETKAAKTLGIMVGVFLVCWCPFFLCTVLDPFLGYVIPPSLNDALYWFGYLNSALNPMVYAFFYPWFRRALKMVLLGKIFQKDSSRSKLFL
Chain of rat TAAR1 (Q923Y9 whole entry): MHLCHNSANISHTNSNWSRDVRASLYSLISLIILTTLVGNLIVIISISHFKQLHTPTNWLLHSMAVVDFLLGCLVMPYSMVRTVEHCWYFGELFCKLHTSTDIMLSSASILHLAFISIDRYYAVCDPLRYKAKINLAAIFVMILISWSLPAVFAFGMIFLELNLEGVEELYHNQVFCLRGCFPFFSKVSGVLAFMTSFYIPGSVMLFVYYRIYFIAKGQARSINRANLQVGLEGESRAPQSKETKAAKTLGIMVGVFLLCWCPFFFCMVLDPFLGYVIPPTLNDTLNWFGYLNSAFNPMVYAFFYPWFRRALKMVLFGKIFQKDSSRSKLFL

Consider `O=C(Nc1cccc([C@@H]2O[C@H]3CN[C@@H]2C3)c1)c1ccc(Cl)cc1` [Example 2, 4-Chloro-N-[3-[(1R,3S,4R)-2-oxa-5-azabicyclo[2.2.1]heptan-3-yl]phenyl]benzamide], for which the Ki in assay [1] turned out to be 2510 nM; in assay [2] it was 79.4 nM.
For `CCOc1ccc(NC(=O)c2ccc([C@@H]3O[C@H]4CN[C@@H]3C4)cc2)cc1` [Example 88, N-(4-Ethoxyphenyl)-4-[(1R,3S,4R)-2-oxa-5-azabicyclo[2.2.1]heptan-3-yl]benzamide], in that order: 25.5 nM and more than 1450 nM.
With `FC(F)(F)c1ccc(Nc2ccc([C@H]3O[C@@H]4CN[C@H]3C4)cc2)cn1` [Example 61, N-[4-[(1S,3R,4S)-2-Oxa-5-azabicyclo[2.2.1]heptan-3-yl]phenyl]-6-(trifluoromethyl)pyridin-3-amine], the results for the Ki in assay [1] and in assay [2] were 7.7 nM and 715 nM, respectively.
`FC(F)(F)COc1ccnc(Nc2ccc([C@H]3O[C@@H]4CN[C@H]3C4)cc2)n1` [Example 79, N-[4-[(1S,3R,4S)-2-Oxa-5-azabicyclo[2.2.1]heptan-3-yl]phenyl]-4-(2,2,2-trifluoroethoxy)pyrimidin-2-amine]: the Ki was determined as 6 nM in assay [1] and 84.1 nM in assay [2].
For `Cc1c(C2CC2)n[nH]c1C(=O)Nc1ccc([C@@H]2O[C@H]3CN[C@@H]2C3)cc1` [Example 69, 3-Cyclopropyl-4-methyl-N-[4-[(1R,3S,4R)-2-oxa-5-azabicyclo[2.2.1]heptan-3-yl]phenyl]-1H-pyrazole-5-carboxamide], in that order: 6.6 nM and 153 nM.
For `Cc1cn[nH]c1C(=O)Nc1ccc([C@H]2O[C@@H]3CN[C@H]2C3)cc1` [Example 47, 4-Methyl-N-[4-[(1S,3R,4S)-2-oxa-5-azabicyclo[2.2.1]heptan-3-yl]phenyl]-1H-pyrazole-5-carboxamide] the same measures were 313 nM and 2300 nM.
For `O=C(Nc1ccc([C@H]2O[C@@H]3CN[C@H]2C3)cc1)c1ccc(C(F)(F)F)cn1` [Example 36, N-[4-[(1S,3R,4S)-2-Oxa-5-azabicyclo[2.2.1]heptan-3-yl]phenyl]-5-(trifluoromethyl)pyridine-2-carboxamide] the same measures were 32.5 nM and 1280 nM.
For the compound `O=C(Nc1ccc([C@H]2O[C@@H]3CN[C@H]2C3)cc1)c1ccnc(C(F)(F)F)n1` [Example 42, N-[4-[(1S,3R,4S)-2-Oxa-5-azabicyclo[2.2.1]heptan-3-yl]phenyl]-2-(trifluoromethyl)pyrimidine-4-carboxamide], the Ki came to 337 nM in assay [1] and 10000 nM in assay [2].
Turning to `CCc1n[nH]c(C(=O)Nc2ccc([C@H]3O[C@@H]4CN[C@H]3C4)cc2)c1C` [Example 50, 3-Ethyl-4-methyl-N-[4-[(1S,3R,4S)-2-oxa-5-azabicyclo[2.2.1]heptan-3-yl]phenyl]-1H-pyrazole-5-carboxamide], the Ki in assay [1] was determined as 12.8 nM; in assay [2], 344 nM.
For `O=C(NCc1ccc(C(F)(F)F)cc1)c1ccc([C@H]2O[C@@H]3CN[C@H]2C3)cc1` [Example 63, 4-[(1S,3R,4S)-2-Oxa-5-azabicyclo[2.2.1]heptan-3-yl]-N-[[4-(trifluoromethyl)phenyl]methyl]benzamide] the same measures were 3.4 nM and 593 nM.
For `CC(C)Cc1cc(C(=O)Nc2ccc([C@@H]3O[C@H]4CN[C@@H]3C4)cc2)[nH]n1` [Example 101, 3-Isobutyl-N-[4-[(1R,3S,4R)-2-oxa-5-azabicyclo[2.2.1]heptan-3-yl]phenyl]-1H-pyrazole-5-carboxamide] the same measures were 5.7 nM and 80.7 nM.
For `Fc1ccc(CNc2ccc([C@H]3O[C@@H]4CN[C@H]3C4)cc2)cc1` [Example 40, N-[(4-Fluorophenyl)methyl]-4-[(1S,3R,4S)-2-oxa-5-azabicyclo[2.2.1]heptan-3-yl]aniline], in that order: 636 nM and 190 nM.
On to `Clc1ccc(Nc2ccc([C@H]3O[C@@H]4CN[C@H]3C4)cc2)nc1` [Example 20, 5-Chloro-N-[4-[(1S,3R,4S)-2-oxa-5-azabicyclo[2.2.1]heptan-3-yl]phenyl]pyridin-2-amine], for which the values for the Ki in assay [1] and in assay [2] were 4.1 nM and 397 nM, respectively.
For `O=C(Nc1ccc([C@@H]2O[C@H]3CN[C@@H]2C3)cc1)c1ccc(C(F)(F)F)nc1` [Example 72, N-[4-[(1R,3S,4R)-2-Oxa-5-azabicyclo[2.2.1]heptan-3-yl]phenyl]-6-(trifluoromethyl)pyridine-3-carboxamide], in that order: 15.3 nM and 9.3 nM.
As to `CC(C)n1nc(OCC(F)(F)F)cc1C(=O)Nc1ccc([C@@H]2O[C@H]3CN[C@@H]2C3)cc1` [Example 89, 2-Isopropyl-N-[4-[(1R,3S,4R)-2-oxa-5-azabicyclo[2.2.1]heptan-3-yl]phenyl]-5-(2,2,2-trifluoroethoxy)pyrazole-3-carboxamide], the Ki in assay [1] is 28 nM; in assay [2] it was 2.6 nM.
For `CCOc1ccc(C(=O)Nc2ccc([C@@H]3O[C@H]4CN[C@@H]3C4)cc2)cc1` [Example 28, 4-Ethoxy-N-[4-[(1R,3S,4R)-2-oxa-5-azabicyclo[2.2.1]heptan-3-yl]phenyl]benzamide], the Ki in assay [1] came to 4.3 nM; in assay [2] it was 178 nM.
In the case of `O=C(CCC(F)(F)F)Nc1ccc([C@H]2O[C@@H]3CN[C@H]2C3)cc1` [Example 84, 4,4,4-Trifluoro-N-[4-[(1S,3R,4S)-2-oxa-5-azabicyclo[2.2.1]heptan-3-yl]phenyl]butanamide], the Ki in assay [1] was 17.2 nM; in assay [2] it was more than 15000 nM.
For `c1ccc([C@H]2O[C@@H]3CN[C@H]2C3)cc1` [Example 9, (1S,3R,4S)-3-Phenyl-2-oxa-5-azabicyclo[2.2.1]heptane], in that order: 34.9 nM and 369 nM.
For `Clc1ccc(Nc2ccc([C@@H]3O[C@H]4CN[C@@H]3C4)cc2)nc1` [Example 24, 5-Chloro-N-[4-[(1R,3S,4R)-2-oxa-5-azabicyclo[2.2.1]heptan-3-yl]phenyl]pyridin-2-amine] the same measures were 3.3 nM and 31.8 nM.
For `O=C(Nc1ccc(Cl)cc1)c1ccc([C@@H]2O[C@H]3CN[C@@H]2C3)cc1` [Example 85] the same measures were 16.4 nM and 1080 nM.
As for `O=C(Nc1ccc([C@@H]2O[C@H]3CN[C@@H]2C3)cc1)c1ccc(OCC(F)(F)F)nc1` [Example 27, N-[4-[(1R,3S,4R)-2-Oxa-5-azabicyclo[2.2.1]heptan-3-yl]phenyl]-6-(2,2,2-trifluoroethoxy)pyridine-3-carboxamide], the Ki in assay [1] was found to be 9.7 nM; in assay [2] it was 41.7 nM.
For `O=C(Nc1cccc([C@@H]2O[C@H]3CN[C@@H]2C3)c1)c1cccc(Cl)c1` [Example 1, 3-Chloro-N-[3-[(1R,3S,4R)-2-oxa-5-azabicyclo[2.2.1]heptan-3-yl]phenyl]benzamide], in that order: 2990 nM and 132 nM.
For `FC(F)(F)c1ccc(Nc2ccc([C@@H]3O[C@H]4CN[C@@H]3C4)cc2)nc1` [Example 11, N-[4-[(1R,3S,4R)-2-Oxa-5-azabicyclo[2.2.1]heptan-3-yl]phenyl]-5-(trifluoromethyl)pyridin-2-amine], the values for the Ki in assay [1] and in assay [2] were 3.9 nM and 15.3 nM, respectively.
For `O=C(Nc1cccc(Cl)c1)Nc1cccc([C@@H]2O[C@H]3CN[C@@H]2C3)c1` [Example 5, 1-(3-Chlorophenyl)-3-[3-[(1R,3S,4R)-2-oxa-5-azabicyclo[2.2.1]heptan-3-yl]phenyl]urea], in that order: 1330 nM and 19.2 nM.
Take `O=C(Nc1ccc([C@@H]2O[C@H]3CN[C@@H]2C3)cc1)c1cnc(C2CC2)nc1` [Example 29, 2-Cyclopropyl-N-[4-[(1R,3S,4R)-2-oxa-5-azabicyclo[2.2.1]heptan-3-yl]phenyl]pyrimidine-5-carboxamide]: the Ki in assay [1] stood at 31.5 nM; in assay [2], 43.8 nM.
For `O=C(Nc1ccc(Cl)cc1)Nc1ccc([C@H]2O[C@@H]3CN[C@H]2C3)cc1` [Example 33, 1-(4-Chlorophenyl)-3-[4-[(1S,3R,4S)-2-oxa-5-azabicyclo[2.2.1]heptan-3-yl]phenyl]urea] the same measures were 3.5 nM and 11.6 nM.
For `FC(F)(F)c1cnc(Nc2ccc([C@@H]3O[C@H]4CN[C@@H]3C4)cc2)cn1` [Example 30, N-[4-[(1R,3S,4R)-2-Oxa-5-azabicyclo[2.2.1]heptan-3-yl]phenyl]-5-(trifluoromethyl)pyrazin-2-amine] the same measures were 29.1 nM and 276 nM.
For `CCc1n[nH]c(C(=O)Nc2ccc([C@@H]3O[C@H]4CN[C@@H]3C4)cc2)c1Br` [Example 99, 4-Bromo-3-ethyl-N-[4-[(1R,3S,4R)-2-oxa-5-azabicyclo[2.2.1]heptan-3-yl]phenyl]-1H-pyrazole-5-carboxamide], in that order: 3.5 nM and 127 nM.
On to `CCCc1n[nH]c(C(=O)Nc2ccc([C@H]3O[C@@H]4CN[C@H]3C4)cc2)c1Cl` [Example 49, 4-Chloro-N-[4-[(1S,3R,4S)-2-oxa-5-azabicyclo[2.2.1]heptan-3-yl]phenyl]-3-propyl-1H-pyrazole-5-carboxamide], for which the Ki in assay [1] came out at 4.4 nM; in assay [2], 37 nM.
For `CCOc1ccc(C(=O)Nc2ccc([C@H]3O[C@@H]4CN[C@H]3C4)cc2)cc1` [Example 17, 4-Ethoxy-N-[4-[(1S,3R,4S)-2-oxa-5-azabicyclo[2.2.1]heptan-3-yl]phenyl]benzamide] the same measures were 6.4 nM and 693 nM.
For `CCOc1n[nH]c(C(=O)Nc2ccc([C@@H]3O[C@H]4CN[C@@H]3C4)cc2)c1Cl` [Example 98, 4-Chloro-3-ethoxy-N-[4-[(1R,3S,4R)-2-oxa-5-azabicyclo[2.2.1]heptan-3-yl]phenyl]-1H-pyrazole-5-carboxamide], in that order: 6.8 nM and 74.5 nM.
For `c1ccc([C@H]2O[C@@H]3CN[C@H]2C3)nc1` [Example 105, (1S,3S,4S)-3-(2-Pyridyl)-2-oxa-5-azabicyclo[2.2.1]heptane], in that order: 46.5 nM and 324 nM.

(Values after patent US9790230B2 (Hoffmann-La Roche Inc., priority 2015, dated 2017).)
